Paper PMC2215728 (The Journal of General Physiology, 1978)
Where two headings read alike, the source gives them in different places.

Tests used:
[1] = system: everted segments of rat jejunum; experiment: Influx of weak electrolytes into everted segments of rat jejunum in vitro; conditions: for Influx Jejunum: Table III; for Resistance Jejunum Unstirred layer: Table V, calculated as d/DSc; for Ratio of influx and nonionized concentration: J(1 + 10a)/C
[2] = system: everted segments of rat ileum; experiment: Influx of weak electrolytes into everted segments of rat ileum in vitro; conditions: for Influx Ileum: Table III; for Resistance Ileum Unstirred layer: Table V, calculated as d/DSc
[3] = Table III, cited from earlier work
[4] = Partition in two-phase aqueous/organic solvent; format: physicochemical; conditions: heptane:aqueous partition of nonionized form
[5] = system: everted segments of rat jejunum
[6] = system: everted segments of rat ileum
[7] = 1 mM, pH 7.40, 1 min, 37C, mean SE (n)
[8] = Table I, everted rat jejunum, 1 mM solution, second weak electrolyte (10 mM): Benzylamine
[9] = Table I, everted rat jejunum, 1 mM solution, second weak electrolyte (10 mM): Pentanoic acid
[10] = Table I, everted rat jejunum, 1 mM solution, second weak electrolyte (10 mM): c-Hexylamine
[11] = Table I, everted rat jejunum, 1 mM solution, second weak electrolyte (10 mM): Benzoic acid
[12] = 0.1 mM solution, observed influx increased by a factor of 10
[13] = Table II, everted segments (region not stated), pH 7.4

Row | Compound | Influx Jejunum [1, 7] [nmol.100mg dry wt-1.min-1] | Resistance Jejunum Unstirred layer [1] [cm-3.min.100 mg dry wt] | Influx Ileum [2, 7] [nmol.100mg dry wt-1.min-1] | Resistance Ileum Unstirred layer [2] | also measured
1 | CC(C)N [2-Amino propane] | 6 | 1.47 | 4 | 1.54 cm-3.min.100 mg dry wt | pKa ([3]; ref Ref. 6): 10.63; ratio of kni Hept values for 2-amino-propane and propionic acid [4]: greater than 20
2 | CC(=O)O [Acetic, acetic acid] | 0 |  | 3 |  | 
3 | O=C(O)c1ccccc1 [Benzoic, Benzoic acid] | 17 |  | 15 |  | Influx [1, 8]: 19 nmol.100mg dry wt-1.min-1; Influx [1, 9]: 21 nmol.100mg dry wt-1.min-1; Influx [1, 10]: 17 nmol.100mg dry wt-1.min-1
4 | NCc1ccccc1 [Benzylamine] | 220 | 1.92 | 155 | 2,02 cm-3.min.100 mg dry wt | Influx [1, 11]: 221 nmol.100mg dry wt-1.min-1; Influx [1, 10]: 211 nmol.100mg dry wt-1.min-1
5 | CCCC(=O)O [Butyric] | 12 |  | 11 |  | 
6 | CCCCCCCCCC(=O)O [Decanoic, decanoic acid] |  | 2.79 |  | 2.93 cm-3.min.100 mg dry wt | Influx Jejunum [1, 12]: 361 nmol.100mg dry wt-1.min-1; Influx Ileum [2, 12]: 158 nmol.100mg dry wt-1.min-1
7 | CCCCCCCCCCN [Decylamine] |  | 2.78 |  |  | Influx Jejunum [1, 12]: 264 nmol.100mg dry wt-1.min-1
8 | O=C(O)C(c1ccccc1)c1ccccc1 [Diphenylacetic] | 14 | 2.81 | 7 | 2.95 cm-3.min.100 mg dry wt | pKa ([3]; ref Ref. 6): 3.94
9 | CCCCCCC(=O)O [Heptanoic] | 81 | 2.31 | 50 | 2.43 cm-3.min.100 mg dry wt | pKa ([3]; ref Ref. 6): 4.89
10 | CCCCCC(=O)O [Hexanoic, HEXANOIC ACID] | 73 | 2.13 | 29 | 2.24 cm-3.min.100 mg dry wt | 
11 | CN1C(=O)NC(=O)C(C)(C2=CCCCC2)C1=O (centres unmarked) [Hexobarbital] | 348 | 2.86 | 327 | 3.00 cm-3.min.100 mg dry wt | pKa ([3]; ref Bush (1)): 8.20
12 | CCC(=O)C(CC(C)N(C)C)(c1ccccc1)c1ccccc1 (centres unmarked) [Methadone] | 272 | 3.74 | 259 | 3.93 cm-3.min.100 mg dry wt | 
13 | C=CCN1CC[C@]23c4c5ccc(O)c4O[C@H]2C(=O)CC[C@@]3(O)[C@H]1C5 [Naloxone] | 286 | 3.38 | 263 |  | pKa ([3]; ref Taylor (11)): 6.93
14 | CCCCCCCC(=O)O [Octanoic, Octanoic acid] | 147 | 2.47 | 56 | 2.60 cm-3.min.100 mg dry wt | Influx [1, 13]: 145; Influx ([1]; Table II, everted segments (region not stated), pH 7.9): 60; Influx ([1]; Table II, everted segments (region not stated), pH 8.4): 15
15 | CCCCC(=O)O [Pentanoic, Pentanoic acid] | 22 | 1.95 | 18 | 2.05 cm-3.min.100 mg dry wt | Influx [1, 11]: 22 nmol.100mg dry wt-1.min-1; Influx [1, 8]: 18 nmol.100mg dry wt-1.min-1; Influx [1, 10]: 20 nmol.100mg dry wt-1.min-1
16 | CCC1(c2ccccc2)C(=O)NC(=O)NC1=O [Phenobarbital] | 321 | 2.81 |  | 2.95 cm-3.min.100 mg dry wt | 
17 | O=C(O)Cc1ccccc1 [Phenylacetic, PHENYLACETIC ACID] | 24 | 2.16 | 15 | 2.27 cm-3.min.100 mg dry wt | 
18 | CCC(=O)O [Propionic, propionic acid] | 6 | 1.53 | 9 | 1.61 cm-3.min.100 mg dry wt | 
19 | NC1CCCCC1 [c-Hexylamine] | 12 | 1.95 | 6 | 2.05 cm-3.min.100 mg dry wt | Influx [1, 11]: 9 nmol.100mg dry wt-1.min-1; Influx [1, 8]: 12 nmol.100mg dry wt-1.min-1; Influx [1, 9]: 9 nmol.100mg dry wt-1.min-1; Influx [1, 13]: 12; Ratio of influx and nonionized concentration ([1]; Table II, pH 7.4): 22; Ratio of influx and nonionized concentration ([1]; Table II, pH 7.9): 24; pKa ([3]; ref Ref. 6): 10.66
20 | CCCCCCCO [heptanol] |  |  |  |  | influx of heptanol with pH of incubation saline ([1]; preliminary experiments, range of pH values 7.5-8.5): constant
21 | CC(C)C(=O)O [iso-Butyric] | 10 | 1.75 | 13 | 1.84 cm-3.min.100 mg dry wt | 
22 | CC(C)CC(=O)O [iso-Pentanoic] | 21 |  | 20 |  | Resistance Jejunum Empirical [5]: 4.76x 101; Resistance Jejunum Unstirred layer [5]: 1.95; Resistance Ileum Empirical [6]: 5.00x 101; Resistance Ileum Unstirred layer [6]: 2.05
